{"source": "patent US11273152B2", "about": "“TRPV2 antagonists” (Instituto de Medicina Molecular João Lobo Antunes, priority 2017, dated 2022)", "key": {"[1]": {"test_system": "HepG2 cells", "assay": "Wound-healing scratch assay, HepG2", "format": "cell-based", "conditions": "24-hour"}, "[2]": {"test_system": "HEK293 cells", "assay": "Viability of HEK cells transiently transfected with TRPV2", "format": "cell-based, human", "protocol": "75,000 HEK293 cells were seeded in each well of a 24 well plate. The next day cells were transfected with hTRPV2-RFP plasmid (kindly gifted by Prof. Itaru Kojima, Gunma University, Japan). After incubating for 24 hours the media was changed and PL was added at 5 and 10 μM. 24 hours later cell viability was assessed using CellTitre-Blue (Promega) or Annexin V, 7-AAD staining. Transfection efficiency was assessed using flow cytometry.\nCells were harvested from plates by washing with media (HEK293) or TrypLE express (Gibco). The media was removed after centrifugation and the cells were washed twice with binding buffer before being incubated for 30 minutes at room temperature with Annexin V-APC (eBiosciences, 1:100) and 7-AAD (Pharmigen, 1:50). Samples were diluted with binding buffer and analyzed by flow cytometry using BD LSRFortessa X-20 with FACS Diva software. Samples with single stains were used as controls."}, "[3]": {"target": "TRPC1 (Homo sapiens, UniProt P48995)", "sequence (P48995 whole entry)": "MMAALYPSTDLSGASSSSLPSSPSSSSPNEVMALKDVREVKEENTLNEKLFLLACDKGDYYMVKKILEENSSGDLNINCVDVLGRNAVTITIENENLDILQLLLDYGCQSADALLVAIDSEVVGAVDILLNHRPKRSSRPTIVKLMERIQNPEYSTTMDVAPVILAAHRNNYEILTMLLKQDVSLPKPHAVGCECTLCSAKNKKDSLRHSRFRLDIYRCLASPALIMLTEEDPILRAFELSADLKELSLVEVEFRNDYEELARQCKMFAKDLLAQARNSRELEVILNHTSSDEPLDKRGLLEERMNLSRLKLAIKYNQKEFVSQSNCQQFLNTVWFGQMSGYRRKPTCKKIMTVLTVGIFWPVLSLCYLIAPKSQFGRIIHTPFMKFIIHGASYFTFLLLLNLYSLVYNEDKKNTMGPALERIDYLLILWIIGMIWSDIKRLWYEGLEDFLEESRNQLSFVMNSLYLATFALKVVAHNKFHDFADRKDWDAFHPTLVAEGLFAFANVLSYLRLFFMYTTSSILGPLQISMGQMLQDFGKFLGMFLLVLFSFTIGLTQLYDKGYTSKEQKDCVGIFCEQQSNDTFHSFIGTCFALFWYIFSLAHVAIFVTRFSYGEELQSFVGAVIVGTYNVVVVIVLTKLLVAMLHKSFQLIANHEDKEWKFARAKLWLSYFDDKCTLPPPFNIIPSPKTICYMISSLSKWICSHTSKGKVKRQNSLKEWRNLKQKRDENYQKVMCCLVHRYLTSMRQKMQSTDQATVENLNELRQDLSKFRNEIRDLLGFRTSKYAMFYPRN", "assay": "Fluorescence cell-based assay, TRPC1", "conditions": "membrane potential dye, duplicate", "protocol": "The assays were performed at SB Discovery (Glasgow, UK) on a fee-for-service basis. Human TRP cells were trypsinised, counted and seeded in black, clear-bottomed 96 well plates at a density of 50,000 cells per well in 100 μL volume and incubated overnight. Next day, the cells were loaded with calcium 5 dye or membrane potential dye. TRPV1-5, TRPA1, TRPM2, TRPM3, and TRPM8 were tested using the calcium 5 dye. TRPC1, TRPC3-7, and TRPM4-5 were tested using the membrane potential dye. Both dye solutions were made up in HEPES buffered Hank's balanced salt solution (HBSS). Dye solution (90 μL) was added to the wells and incubated at 37° C. for 1 hour. Test compounds and standard inhibitors (10 μL) were then added to the wells and incubated at room temperature for 10 minutes. The plates were then placed in the flexstation and fluorescence monitored every 1.52 seconds. After 20 seconds agonist was added and the fluorescence monitored for 2 minutes at 485 nm/525 nm and 530 nm/565 nm, Ex/Em, for the calcium 5 dye and the membrane potential dye respectively. Controls-TRPV1: capsazepine; TRPV2: tranilast; TRPV3: ruthenium red; TRPV4: ruthenium red; TRPV5: Gd^3+; TRPA1, ruthenium red; TRPC1: Gd^3+; TRPC3: Pyr3; TRPC4: ML 204; TRPC5: ML 204; TRPC6: ML 204; TRPC7: SKF 96365; TRPM2: 2-APB; TRPM3: Mef acid; TRPM4: clotrimazole; TRPM5: TPPO; TRPM8: 2-APB. […]"}}, "note": "“Also recorded” adds a separate entry of the source.", "data": [{"molecule": "COc1cc(/C=C/C(=O)N2CCC=CC2=O)cc(OC)c1OC", "note": "[Compound 1, piperlongumine]", "values": [{"measurement": "Cell death during wound-healing assay", "setting": "[1]; 5 μM", "result": "did not induce significant cell death"}, {"measurement": "Cell migration, wound healing", "setting": "[1]; 1 at 5 μM", "result": "significantly reduced migration; also recorded: inhibits cancer cell migration in a Ca^2+-dependent manner"}, {"measurement": "Viability of TRPV2-transfected cells vs non-transfected controls", "setting": "[2]", "result": "identical result"}, {"measurement": "IC50", "setting": "[3]", "result": "> 100", "unit": "µM"}]}]}
